Assay results published in patent US8470876B2, “Lipid composition for the treatment of skin problems in companion animals” (priority 2009, dated 2013).

How the values were obtained:
Type in all cases: in vivo
atopic and pruritic skin = assay: Case: Parson Russell terrier with atopic and pruritic skin; details: past treatment history of the same dog
From the text: An eight-year-old Parson Russell terrier had suffered for a long time from atopic and pruritic skin. The dog had been treated with cortisone and with a variety of different fatty acid supplements containing GLA and fish oil fatty acids (EPA and DHA). […] Constant itching tired the dog and it became phlegmatic. The dog was put on daily dosing of the nutritional oil blend as prepared in example 1 and a clear change in the dogs skin condition and behaviour occurred in a matter of weeks. The rashes and itching was reduced by 95%.

rhinarium = assay: Case: French Bulldog with dry, rough and chapped rhinarium; details: past treatment history of the same dog
From the text: In this breed of dogs the rhinarium is typically black, but for this individual the black colour of the rhinarium had faded and was grey. […] Topical treatment with oil or ointments provided temporary smoothing effect and a change in colour. […] The rhinarium was no longer rough and chapped, but it was supple and had obtained a characteristic black colour. Subsequently the positive effect on the rhinarium condition was produced with the oil blend in dogs from different breeds.

skin and claws = assay: Case: Bullterrier with skin problems and splitting and breaking claws; details: past treatment history of the same dog
From the text: A three year old, female Bullterrier Dog had suffered from various skin problems since it was a puppy. The skin problems were characterized by red spots in the stomach and hairless spots in the head and in the hind limbs. In addition to the skin problems the dog suffered from splitting and breaking claws. The claws kept constantly breaking and by the age of three the claws had never grown long enough to be clipped. […] The skin was cleared from the red spots and the hairless areas started to grow hair. The positive effects on the skin health remained over several months as the supplementation was continued. […] Three months after the supplementation with the oil blend had begun, the dog's claws needed to be clipped. This was the first time in this dog's life.

[1] = test system: symmetrical lupoid onychodystrophy (SLO); assay: Case: schapendoes dog with symmetrical lupoid onychodystrophy (SLO); details: initial treatment before supplementation
Description: A four year old, female schapendoes dog was diagnosed with symmetrical lupoid onychodystrophy (SLO). […] Supplementation with the nutritional oil blend as prepared in example 1 at 4 ml/10 kg body weight was started immediately after the secondary infections had cleared.

C[C@]12CCC(=O)C=C1CC[C@@H]1[C@@H]2C(=O)C[C@@]2(C)[C@H]1CC[C@]2(O)C(=O)CO [cortisone]
effect of earlier treatments on atopic and pruritic skin (atopic and pruritic skin): provided help only for some weeks

vitamin A
appearance of the rhinarium with earlier nutritional supplements (rhinarium): without any appreciable effect

O=C(O)CCCC[C@@H]1SC[C@@H]2NC(=O)N[C@@H]21 [biotin]
appearance of the rhinarium with earlier nutritional supplements (rhinarium): without any appreciable effect | claws with earlier treatment (skin and claws): without any appreciable improvement

CC1=C(C(=O)O)N2C(=O)[C@@H](NC(=O)[C@H](N)c3ccccc3)[C@H]2SC1 [cephalexin]
secondary bacterial infections in affected claws [1]: total resolution of the bacterial infection
